Data on 6 compounds can be found in patent US20260374739A1, “SMALL MOLECULAR WEIGHT CHEMICAL COMPOUND TO ANTAGONIZE EPH-EPHRIN TETRAMERIZATION AND INHIBIT BIDIRECTIONAL SIGNALING” (THE BOARD OF REGENTS OF THE UNIVERSITY OF TEXAS SYSTEM, priority 2022, published 2026).

pIC50: −log10 of the molar value. “And” between values parts separate entries of the source, which are not always exact repeats. Identical values can stand only once. Like-named read-outs stand apart in the source and are kept apart here.

Assay [1] has as its target T1, EphrinB2-EphB2 (Homo sapiens, UniProt P29323).
T1 construct: soluble human EphB1-His, EphB2-His, and EphB4-His ectodomains; commercially available human EphrinB1-Fc (EB1), EphrinB2-Fc (EB2), and EphrinB3-Fc (EB3) ectodomain proteins; purchased
T1 sequence (P29323 19-543 limits assumed): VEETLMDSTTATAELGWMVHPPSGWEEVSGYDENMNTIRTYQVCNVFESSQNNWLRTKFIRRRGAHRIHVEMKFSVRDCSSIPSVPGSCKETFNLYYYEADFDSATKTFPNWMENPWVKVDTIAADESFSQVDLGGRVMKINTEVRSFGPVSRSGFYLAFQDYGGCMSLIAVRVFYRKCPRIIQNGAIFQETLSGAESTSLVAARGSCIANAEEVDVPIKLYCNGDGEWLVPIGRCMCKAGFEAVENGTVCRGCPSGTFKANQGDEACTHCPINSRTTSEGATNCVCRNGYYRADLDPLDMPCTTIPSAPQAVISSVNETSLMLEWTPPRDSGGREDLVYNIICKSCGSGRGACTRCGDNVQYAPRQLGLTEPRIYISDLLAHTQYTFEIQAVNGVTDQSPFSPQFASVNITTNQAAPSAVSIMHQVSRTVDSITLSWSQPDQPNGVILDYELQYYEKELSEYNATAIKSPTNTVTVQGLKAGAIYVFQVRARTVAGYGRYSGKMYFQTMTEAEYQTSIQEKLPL
Nature of the assay: Octet tetramerization inhibition, immobilized human EphrinB2 binding to 50 nM soluble human EphB2. The conditions noted are these: for disruption of unsurmountable tetramer: 0.8-3.2 μM. Background: BLI is a label-free optical method that tracks binding on a fibre tip over time.

The target of assay [2] is T1, EphrinB2-EphB2. Put plainly: Octet 80 sec association/500 sec dissociation, immobilized human EphrinB2-Fc binding to soluble human EphB2-His. The conditions noted are these: for EphB2 Inhibition Percent, Inhibition of Association ONLY: at 3.2 μM and 80 seconds; for EphB2 Inhibition Percent, Inhibition of Association ONLY / EphB2 Inhibition Percent, Inhibition of Association-Dissociation: immobilized human EphrinB2, 25 nM soluble human EphB2; for EphB2 Inhibition Percent, Inhibition of Association-Dissociation: at 3.2 μM and 580 seconds; for inhibition of EphrinB2-EphB interactions: 3.2 μM, EphB1, EphB2 and EphB4. In a few lines: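 EphrinB2-Fc captured on AHC biosensors, then soluble His-tagged EphB ectodomain (25 nM for % inhibition runs) associated 80 s and dissociated 500 s in PBS, 0.05% Tween-20, 1% DMSO ± compound. Compounds tested at 0.1–3.2 μM with a 10 μM max standard; IC50 from AUC of full traces or at 75 s and 135 s.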

The mark [3] stands for this setting: tetramerization inhibitor IC50 (relative), association step, surmountable tetramer.
[4] abbreviates: Absolute AUC/IC50, Table A, EphrinB2-EphB2.
Where [5] appears, read: Absolute Association IC50 (300 sec), Table A, EphrinB2-EphB2.
Where [6] appears, read: Absolute Dissociation IC50 (450 sec), Table A, EphrinB2-EphB2.
[7] abbreviates: Relative AUC/IC50, Table A, EphrinB2-EphB2, compound 7: association only.
[8] abbreviates: Relative Association IC50 (300 sec), Table A, EphrinB2-EphB2.
Setting [9] is: Relative Dissociation IC50 (450 sec), Table A, EphrinB2-EphB2.
[10] abbreviates: EphB2, 25 nM EphB2, 3.2 μM compound, A20-I as max control, 0* = less than 0, no inhibition, read-out: % Inhibition: Association + Dissociation (160 sec).
[11] abbreviates: EphB2, 25 nM EphB2, 3.2 μM compound, A20-I as max control, 0* = less than 0, no inhibition, read-out: % Inhibition: Association ONLY (80 sec).
The mark [12] stands for this setting: EphB2, 25 nM EphB2, 3.2 μM compound, A20-I as max control, 0* = less than 0, no inhibition, listed as A19-NO2 (B).

One may read the pIC50 as the IC50 on a negative log10 scale, so that one unit is a factor of ten. Low readings indicate a high IC50, high ones a low IC50. Regarding `Oc1ccc(CN2CCN(c3ccc(Br)cc3)CC2)c2cccnc12` [Compound 26, 5-((4-(4-bromophenyl)piperazin-1-yl)methyl)quinolin-8-ol], the pIC50 at EphrinB2-EphB2 [1] (setting [3]) is 5.92. Moreover, at EphrinB2-EphB2 [2], the “EphB2 Inhibition Percent, Inhibition of Association ONLY” value is listed as 35.9% and the “EphB2 Inhibition Percent, Inhibition of Association-Dissociation” value is on record as 60.1%.

What is called inhibition is the drop in the measured response relative to a control, in per cent. In the case of `COc1ccccc1N1CCN(Cc2cc(I)c(O)c3ncccc23)CC1` [Compound 71, 7-iodo-5-((4-(2-methoxyphenyl)piperazin-1-yl)methyl)quinolin-8-ol], the “tetramerization inhibitor activity” value on EphrinB2-EphB2 [1] is “exhibit strong IC50 values”. Besides, the “disruption of unsurmountable tetramer” value at EphrinB2-EphB2 [1] (listed as 3511-1) was “fairly strong ability to disrupt some of the unsurmountable tetramer”; on EphrinB2-EphB2 [1] (listed as 3511-I), “able to inhibit a small amount of the EphrinB2-EphB2 unsurmountable tetramer”. Also, the pIC50 at EphrinB2-EphB2 [1] (setting [4]) is 6.38 and 6.28; on EphrinB2-EphB2 [1] (setting [5]), 6.17; at EphrinB2-EphB2 [1] (setting [6]) it was 6.21 and 6.19; on EphrinB2-EphB2 [1] (setting [7]) it was 6.42 and 6.39; on EphrinB2-EphB2 [1] (setting [8]) it was 6.33 and 6.47; at EphrinB2-EphB2 [1] (setting [9]) it was 6.32 and 6.29. In addition, the “inhibition of EphrinB2-EphB interactions” value on EphrinB2-EphB2 [2] is “activity similar to A20-I max control”. Further, the inhibition at 3.2 µM was 73.2% on EphrinB2-EphB2 [2] (setting [10]) and 58.7% at EphrinB2-EphB2 [2] (setting [11]).

For the compound `O=[N+]([O-])c1cc(CN2CCOCC2)c2cccnc2c1O` [Compound 10, 4-((8-hydroxy-7-nitroquinolin-1-ium-5-yl)methyl)morpholin-4-ium chloride], the pIC50 at EphrinB2-EphB2 [1] (setting [4]), on EphrinB2-EphB2 [1] (setting [5]), on EphrinB2-EphB2 [1] (setting [6]), on EphrinB2-EphB2 [1] (setting [7]), at EphrinB2-EphB2 [1] (setting [8]) and on EphrinB2-EphB2 [1] (setting [9]) was under 5.80 each time. For the same compound, the “% Inhibition: Association + Dissociation (160 sec)” value at EphrinB2-EphB2 [2] (setting [12]) was determined as 24.2%. Also, the “% Inhibition: Association ONLY (80 sec)” value on EphrinB2-EphB2 [2] (setting [12]) came to 11.6%. Also, the “EphB2 Inhibition Percent, Inhibition of Association ONLY” value on EphrinB2-EphB2 [2] is 9.2% and 11.6% and 16.5%. For the same compound, on EphrinB2-EphB2 [2], the “EphB2 Inhibition Percent, Inhibition of Association-Dissociation” value is 24.5% and 24.2% and 21.0%.

For the compound `Oc1c(CN2CCCCC2)cc(Cl)c2cccnc12` [Compound 76, 5-chloro-7-(piperidin-1-ylmethyl)quinolin-8-ol, reference compound], on EphrinB2-EphB2 [2], the “EphB2 Inhibition Percent, Inhibition of Association ONLY” value was 59.7% and 46.7%; the “EphB2 Inhibition Percent, Inhibition of Association-Dissociation” value was 77.8% and 71.3%.

Take `Oc1c(Br)cc(CN2CCOCC2)c2cccnc12` [Compound 6, 4-((7-bromo-8-hydroxyquinolin-1-ium-5-yl)methyl)morpholin-4-ium chloride]: the pIC50 at EphrinB2-EphB2 [1] (setting [5]) is 6.03; on EphrinB2-EphB2 [1] (setting [6]), 6.16; at EphrinB2-EphB2 [1] (setting [7]) it was 6.32; at EphrinB2-EphB2 [1] (setting [8]) it was 6.31; on EphrinB2-EphB2 [1] (setting [9]), 6.28. In addition, on EphrinB2-EphB2 [2], the “EphB2 Inhibition Percent, Inhibition of Association ONLY” value is reported as 61.0%. Besides, the “EphB2 Inhibition Percent, Inhibition of Association-Dissociation” value at EphrinB2-EphB2 [2] was 76.8%.

`Oc1c(Cl)cc(CN2CCOCC2)c2cccnc12` [Compound 3, 7-chloro-5-(morpholinomethyl)quinolin-8-ol]: the pIC50 on EphrinB2-EphB2 [1] (setting [4]) is 5.62; at EphrinB2-EphB2 [1] (setting [5]), 5.63; on EphrinB2-EphB2 [1] (setting [6]), 5.77; at EphrinB2-EphB2 [1] (setting [8]), 5.95; at EphrinB2-EphB2 [1] (setting [9]), 5.98; at EphrinB2-EphB2 [1] (setting [3]), about 6.30. The “inhibition of EphrinB2-EphB interactions” value at EphrinB2-EphB2 [2] was “activity similar to A20-I max control”. In addition, the inhibition at 3.2 µM on EphrinB2-EphB2 [2] (setting [10]) was determined as 78.1%; at EphrinB2-EphB2 [2] (setting [11]), 64.1%.
